Measurements reported in ChEMBL document CHEMBL1201862, “PubChem BioAssay data set” (2004).
Counter-ions that a name gives are not always drawn.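 96-well plates; 48 h exposure; 5 concentrations. Endpoints by linear interpolation between flanking doses. Not reached: highest tested concentration assigned. GI50 marks 50% less growth.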 Active and inactive are the calls of the source. Cut-off read from the data, not from the text of the source: active = GI50 up to about 1.1 µM and inactive = higher.

Key:
Assay in all cases: DTP human tumour cell line panel, 48 h
MCF7 = test system: MCF7
PC-3 = test system: PC-3
ACHN = test system: ACHN
HL-60 = test system: HL-60
NCI-H460 = test system: NCI-H460
HT-29 = test system: HT-29
RPMI-8226 = test system: RPMI-8226
SK-MEL-28 = test system: SK-MEL-28
HOP-62 = test system: HOP-62
MOLT-4 = test system: MOLT-4
CAKI-1 = test system: CAKI-1
SF-539 = test system: SF-539
UACC-257 = test system: UACC-257
EKVX = test system: EKVX
HCT-15 = test system: HCT-15
T47D = test system: T47D
SN12C = test system: SN12C
A549 = test system: A549
HCC 2998 = test system: HCC 2998
HCT-116 = test system: HCT-116

COc1ccc(/C=C(/c2ccccc2)c2c(C)cc(C)c(/C(=C\c3ccc(OC)cc3)c3ccccc3)c2/N=N/c2cc(C)cc(C)c2)cc1
GI50 (MCF7): 9.91 µM (inactive)
GI50 (PC-3): 9.89 µM (inactive)
GI50 (ACHN): > 56.5 µM (inactive)
GI50 (HL-60): 10.3 µM (inactive)
GI50 (NCI-H460): 15.5 µM (inactive)
GI50 (HT-29): 9.71 µM (inactive)
GI50 (RPMI-8226): 6.07 µM (inactive)
GI50 (SK-MEL-28): > 100 µM (inactive)
GI50 (HOP-62): 20.9 µM (inactive)
GI50 (MOLT-4): 15.7 µM (inactive)
GI50 (CAKI-1): > 88.1 µM (inactive)
GI50 (SF-539): 42.1 µM (inactive)
GI50 (UACC-257): 7.69 µM (inactive)
GI50 (EKVX): 30 µM (inactive)
GI50 (HCT-15): > 66.1 µM
GI50 (T47D): 4.9 µM (inactive)
GI50 (SN12C): 8.47 µM (inactive)
GI50 (A549): 14.6 µM (inactive)
GI50 (HCC 2998): 8.34 µM (inactive)
GI50 (HCT-116): 10 µM (inactive)

N#CC1=C(S)N(C2OC(CO)C(O)C(O)C2O)C(c2ccccc2)=CC1c1ccco1 (stereo unspecified)
GI50 (MCF7): 62.2 µM (inactive)
GI50 (PC-3): 47.4 µM (inactive)
GI50 (ACHN): > 10 µM (inactive)
GI50 (HL-60): > 100 µM (inactive)
GI50 (NCI-H460): 28.2 µM (inactive)
GI50 (HT-29): > 100 µM (inactive)
GI50 (RPMI-8226): 23.2 µM (inactive)
GI50 (SK-MEL-28): 91.6 µM (inactive)
GI50 (HOP-62): 44.6 µM (inactive)
GI50 (MOLT-4): 35.2 µM (inactive)
GI50 (CAKI-1): 38.8 µM (inactive)
GI50 (SF-539): 35.2 µM (inactive)
GI50 (UACC-257): 97.1 µM (inactive)
GI50 (HCT-15): 68.9 µM
GI50 (T47D): 4.36 µM (inactive)
GI50 (SN12C): 40.5 µM (inactive)
GI50 (A549): 46.1 µM (inactive)
GI50 (HCC 2998): 28.4 µM (inactive)
GI50 (HCT-116): 21.3 µM (inactive)

COc1cc(/C=C/C2=NN(c3cccc(S(=O)(=O)O)c3)C3(C2)SCC(=O)N3c2nc3ccccc3s2)cc(OC)c1OC (stereo unspecified)
GI50 (MCF7): 36.9 µM (inactive)
GI50 (PC-3): 45.9 µM (inactive)
GI50 (ACHN): 64.3 µM (inactive)
GI50 (HL-60): 23.8 µM (inactive)
GI50 (NCI-H460): 37.5 µM (inactive)
GI50 (HT-29): 90.8 µM (inactive)
GI50 (RPMI-8226): 21.3 µM (inactive)
GI50 (SK-MEL-28): > 100 µM (inactive)
GI50 (MOLT-4): 32.9 µM (inactive)
GI50 (CAKI-1): 55.2 µM (inactive)
GI50 (SF-539): 46 µM (inactive)
GI50 (UACC-257): 95.7 µM (inactive)
GI50 (EKVX): 68.1 µM (inactive)
GI50 (HCT-15): 51.9 µM
GI50 (T47D): 15 µM (inactive)
GI50 (SN12C): 33.3 µM (inactive)
GI50 (A549): 56.1 µM (inactive)
GI50 (HCC 2998): > 100 µM (inactive)
GI50 (HCT-116): 50.5 µM (inactive)

COc1ccc(/C=C2\CCC(CNc3cc(C)on3)C2=O)cc1 (stereo unspecified)
GI50 (MCF7): > 100 µM (inactive)
GI50 (PC-3): > 100 µM (inactive)
GI50 (ACHN): > 100 µM (inactive)
GI50 (HL-60): > 21.5 µM (inactive)
GI50 (NCI-H460): > 78.5 µM (inactive)
GI50 (HT-29): > 100 µM (inactive)
GI50 (RPMI-8226): > 100 µM (inactive)
GI50 (SK-MEL-28): > 100 µM (inactive)
GI50 (HOP-62): 47.4 µM (inactive)
GI50 (MOLT-4): > 100 µM (inactive)
GI50 (CAKI-1): > 100 µM (inactive)
GI50 (SF-539): > 100 µM (inactive)
GI50 (UACC-257): > 94.6 µM (inactive)
GI50 (EKVX): > 100 µM (inactive)
GI50 (HCT-15): > 100 µM
GI50 (T47D): 33 µM (inactive)
GI50 (SN12C): > 100 µM (inactive)
GI50 (A549): > 88.7 µM (inactive)
GI50 (HCC 2998): > 44.9 µM (inactive)
GI50 (HCT-116): > 100 µM (inactive)

CC(=O)OCC1OC(n2c3c(cc(C#N)c2=O)CCCCCC3)C(OC(C)=O)C(OC(C)=O)C1OC(C)=O (stereo unspecified)
GI50 (MCF7): > 100 µM (inactive)
GI50 (PC-3): > 100 µM (inactive)
GI50 (ACHN): > 100 µM (inactive)
GI50 (HL-60): > 100 µM (inactive)
GI50 (NCI-H460): > 100 µM (inactive)
GI50 (HT-29): > 100 µM (inactive)
GI50 (RPMI-8226): > 100 µM (inactive)
GI50 (SK-MEL-28): > 100 µM (inactive)
GI50 (HOP-62): > 100 µM (inactive)
GI50 (MOLT-4): > 100 µM (inactive)
GI50 (CAKI-1): > 100 µM (inactive)
GI50 (SF-539): > 100 µM (inactive)
GI50 (UACC-257): > 100 µM (inactive)
GI50 (HCT-15): > 100 µM
GI50 (T47D): 22.7 µM (inactive)
GI50 (SN12C): > 100 µM (inactive)
GI50 (A549): > 100 µM (inactive)
GI50 (HCC 2998): > 100 µM (inactive)
GI50 (HCT-116): > 100 µM (inactive)

NC(=O)c1cc2ccccc2o/c1=N/O
GI50 (MCF7): 29.2 µM (inactive)
GI50 (PC-3): > 100 µM (inactive)
GI50 (ACHN): > 100 µM (inactive)
GI50 (HL-60): 75.2 µM (inactive)
GI50 (NCI-H460): > 100 µM (inactive)
GI50 (HT-29): > 100 µM (inactive)
GI50 (RPMI-8226): > 100 µM (inactive)
GI50 (SK-MEL-28): > 100 µM (inactive)
GI50 (HOP-62): > 100 µM (inactive)
GI50 (MOLT-4): > 100 µM (inactive)
GI50 (CAKI-1): 27.9 µM (inactive)
GI50 (SF-539): > 100 µM (inactive)
GI50 (UACC-257): > 100 µM (inactive)
GI50 (EKVX): 32.2 µM (inactive)
GI50 (HCT-15): > 100 µM
GI50 (T47D): > 100 µM (inactive)
GI50 (SN12C): > 100 µM (inactive)
GI50 (A549): 78.5 µM (inactive)
GI50 (HCC 2998): > 100 µM (inactive)
GI50 (HCT-116): > 100 µM (inactive)

N[C@@H](Cc1ccc(N(CCCl)CCCl)cc1)C(=O)O [MELPHALAN HYDROCHLORIDE]
GI50 (MCF7): 11.1 µM (inactive)
GI50 (PC-3): 37.4 µM (inactive)
GI50 (ACHN): 9.57 µM (inactive)
GI50 (HL-60): 2.51 µM (inactive)
GI50 (NCI-H460): 7.35 µM (inactive)
GI50 (HT-29): 75.3 µM (inactive)
GI50 (RPMI-8226): 44 µM (inactive)
GI50 (SK-MEL-28): 57.8 µM (inactive)
GI50 (HOP-62): 15.4 µM (inactive)
GI50 (MOLT-4): 2.79 µM (inactive)
GI50 (CAKI-1): 10.9 µM (inactive)
GI50 (SF-539): 16.6 µM (inactive)
GI50 (UACC-257): 42.5 µM (inactive)
GI50 (HCT-15): 39.4 µM
GI50 (T47D): 14.1 µM (inactive)
GI50 (SN12C): 14.5 µM (inactive)
GI50 (A549): 28.7 µM (inactive)
GI50 (HCC 2998): 43.3 µM (inactive)
GI50 (HCT-116): 42.1 µM (inactive)
